Activity calls are given as the source filed them.
Experiments:
Cytochrome P450 1A2 = target: T1, Cytochrome P450 1A2 (Homo sapiens, UniProt P05177);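 note: PubChem cytochrome P450 panel assay, CYP1A2 panel member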
T1 sequence (P05177 whole entry): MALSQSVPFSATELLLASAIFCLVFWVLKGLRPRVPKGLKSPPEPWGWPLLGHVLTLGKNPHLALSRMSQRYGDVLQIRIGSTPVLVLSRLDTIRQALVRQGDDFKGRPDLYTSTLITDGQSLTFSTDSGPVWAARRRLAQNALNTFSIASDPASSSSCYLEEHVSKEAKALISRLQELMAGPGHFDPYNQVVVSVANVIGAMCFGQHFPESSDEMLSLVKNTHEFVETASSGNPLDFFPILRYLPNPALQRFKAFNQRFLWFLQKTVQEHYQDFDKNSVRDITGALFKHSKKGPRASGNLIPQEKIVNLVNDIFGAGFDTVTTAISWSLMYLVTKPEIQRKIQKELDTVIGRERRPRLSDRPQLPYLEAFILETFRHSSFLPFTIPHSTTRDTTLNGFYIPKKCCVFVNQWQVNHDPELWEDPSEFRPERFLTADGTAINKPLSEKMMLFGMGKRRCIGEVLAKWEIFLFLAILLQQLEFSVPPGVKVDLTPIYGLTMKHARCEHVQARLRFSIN

Cytochrome P450 2C19 = Cytochrome P450 2C19 (Homo sapiens, UniProt P33261); assay: Cytochrome panel assay with activity outcomes. Panel member name: p450-cyp2c19 Compounds with AC50 equal or less than 10 uM are considered active; type: functional; conditions: read-out: AC50
[1] = target: Neurotensin receptor type 1 (Homo sapiens, UniProt P30989); type: functional;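 note: Image-based confirmatory dose-response assay measuring agonist activity at NTR1; NTR1-expressing U2OS osteosarcoma cells imaged for beta-arrestin GFP spot formation; agonist potency where compounds increase beta-arrestin recruitment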
Cytochrome P450 2C9 = Cytochrome P450 2C9 (Homo sapiens, UniProt P11712)
Mucolipin-3 = target: T2, Mucolipin-3 (Homo sapiens, UniProt Q8TDD5); assay: Dose response cell-based high-throughput screening assay for agonists of the transient receptor potential channel ML3 (TRPML3). [Related pubchem assays: 1526, 1424, 1448 ]; type: functional
T2 sequence (Q8TDD5 whole entry): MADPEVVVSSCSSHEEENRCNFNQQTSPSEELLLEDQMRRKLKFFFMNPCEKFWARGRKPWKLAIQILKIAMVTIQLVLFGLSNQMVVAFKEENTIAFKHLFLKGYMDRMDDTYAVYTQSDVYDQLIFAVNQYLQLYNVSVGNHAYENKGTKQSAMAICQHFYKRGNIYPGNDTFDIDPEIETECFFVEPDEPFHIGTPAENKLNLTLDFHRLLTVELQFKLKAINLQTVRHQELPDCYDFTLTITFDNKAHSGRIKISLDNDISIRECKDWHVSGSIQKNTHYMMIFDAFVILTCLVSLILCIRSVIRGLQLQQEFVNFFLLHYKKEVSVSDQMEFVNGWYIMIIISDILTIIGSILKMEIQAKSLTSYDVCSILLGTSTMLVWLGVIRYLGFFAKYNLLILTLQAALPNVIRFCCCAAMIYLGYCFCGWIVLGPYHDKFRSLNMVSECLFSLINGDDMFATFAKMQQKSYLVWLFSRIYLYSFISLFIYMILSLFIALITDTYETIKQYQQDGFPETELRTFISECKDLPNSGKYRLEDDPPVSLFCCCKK

Ion channel NompC = Ion channel NompC (Danio rerio, UniProt Q7T1G6); assay: Fluorescence counterscreen assay for TRPML3 agonists: dose response cell-based high-throughput screening assay to identify agonists of the transient receptor potential channel N1 (TRPN1). [Related pubchem assays: 1526, 1424, 1448 ]; type: functional
[2] = Trypanosoma cruzi growth suppression in host cells – NIH3T3 host cells, beta-gal luminescence, confirmation (AID 2044); type: functional, cell-based;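 note: intracellular parasites grown in NIH/3T3 mouse fibroblasts as host cells; luminescent beta-galactosidase reporter signal from transgenic T. cruzi replicating inside host cells; inhibitors lower the luminescence signal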
[3] = NIH3T3 cell viability loss – ATP luminescence, mouse fibroblasts, counter-screen, dose response (AID 2010); type: functional, cell-based;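 note: cells exposed to compound for about 90 hours before reading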
[4] = target: T3, Luciferin 4-monooxygenase (Photinus pyralis, UniProt P08659); assay: inhibition of purified Photinus pyralis luciferase – biochemical, luminescence, dose response (AID 1891)
[5] = target: T4, Short transient receptor potential channel 4 (Mus musculus, UniProt Q9QUQ5); assay: potentiation of DAMGO-evoked TRPC4 calcium signal – cell-based, HEK293 TRPC4/mu-opioid, Fluo-4 calcium, EC20 DAMGO, dose response (AID 434941); type: functional
T4 sequence (Q9QUQ5 whole entry): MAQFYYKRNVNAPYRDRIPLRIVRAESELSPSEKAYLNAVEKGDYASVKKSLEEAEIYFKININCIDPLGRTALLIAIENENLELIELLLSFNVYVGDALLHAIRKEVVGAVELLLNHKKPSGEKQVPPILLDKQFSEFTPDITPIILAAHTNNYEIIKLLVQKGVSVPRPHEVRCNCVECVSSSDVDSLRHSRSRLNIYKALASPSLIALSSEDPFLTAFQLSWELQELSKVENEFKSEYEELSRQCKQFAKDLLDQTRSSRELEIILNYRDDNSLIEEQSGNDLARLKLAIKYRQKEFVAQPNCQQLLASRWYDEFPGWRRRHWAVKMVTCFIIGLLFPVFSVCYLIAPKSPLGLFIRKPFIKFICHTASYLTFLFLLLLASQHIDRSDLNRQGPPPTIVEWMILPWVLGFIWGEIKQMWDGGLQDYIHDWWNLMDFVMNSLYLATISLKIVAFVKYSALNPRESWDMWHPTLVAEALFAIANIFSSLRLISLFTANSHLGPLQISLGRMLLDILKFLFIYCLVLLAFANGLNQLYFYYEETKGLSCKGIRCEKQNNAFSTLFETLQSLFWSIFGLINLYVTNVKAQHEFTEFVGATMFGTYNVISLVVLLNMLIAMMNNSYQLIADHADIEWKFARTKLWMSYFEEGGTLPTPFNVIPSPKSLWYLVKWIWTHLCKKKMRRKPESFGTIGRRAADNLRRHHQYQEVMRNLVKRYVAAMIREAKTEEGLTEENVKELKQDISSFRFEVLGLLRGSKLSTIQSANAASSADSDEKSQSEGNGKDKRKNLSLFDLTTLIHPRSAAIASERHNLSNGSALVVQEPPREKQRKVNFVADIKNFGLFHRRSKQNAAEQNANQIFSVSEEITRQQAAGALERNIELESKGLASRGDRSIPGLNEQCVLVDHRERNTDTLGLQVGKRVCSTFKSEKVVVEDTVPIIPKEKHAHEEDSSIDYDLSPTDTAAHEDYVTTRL

[6] = Luminescence Cell-Based Dose Confirmation HTS to Identify Inhibitors of Platelet Dense Granule Release. [Related pubchem assays: 1663 (Primary HTS), 1678 (Summary of Project)]; type: functional
[7] = target: T3, Luciferin 4-monooxygenase; assay: Counter Screen for Luciferase-based Assay Positives. [Related pubchem assays: 620, 618, 411 ]
HT-1080 = assay: HT1080 cell viability loss – fluorescence readout (AID 620); type: functional, cell-based; conditions: Homo sapiens
[8] = A Cell Based Secondary Assay To Explore Cytotoxicity of Compounds that Sensitize Mycobacterium Tuberculosis to Beta-Lactam Antibiotics.; type: functional
[9] = target: NACHT, LRR and PYD domains-containing protein 3 (Homo sapiens, UniProt Q96P20); assay: NALP3 inhibitors in yeast, dose response, luminescent (AID 488799); type: functional
[10] = target: Polyadenylate-binding protein 1 (Homo sapiens, UniProt P11940); assay: PABP inhibition in translation initiation, SAR follow-up (AID 435018); type: functional
[11] = target: Eukaryotic translation initiation factor 4H (Homo sapiens, UniProt Q15056); assay: inhibitors of translation initiation factor eIF4H – SAR follow-up (AID 435011); type: functional
cells = type: functional
[12] = Vero E6 cell cytotoxicity, dose response, cytotoxicity control for non-replicating M. tuberculosis project, secondary assay (AID 492998); type: functional, VeroE6; conditions: Vero C1008
INS1 = assay: INS-1E survival protection against cytokine death – cell-based, luminescence, retest, dose response (AID 449756); type: functional; conditions: Rattus norvegicus;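 note: cell death triggered by IL-1 beta plus TNF-alpha plus IFN-gamma mixture; protective hits raise ATP signal compared with cytokine alone wells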
Streptococcus = assay: GAS UMAA2166 growth inhibition – luminescence, BacTiterGlo, counter-screen for streptokinase expression inhibitor project, dose response (AID 1915); type: functional, organism-based;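 note: potency for reduction of bacterial viability or growth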
[13] = system: Streptococcus sp. 'group A'; assay: Streptococcus pyogenes SK(-)GAS viability under kanamycin – luminescence, BacTiterGlo, confirmation, counter-screen for streptokinase expression inhibitor project, dose response (AID 1900); type: functional, organism-based
[14] = THP-1 cell cytotoxicity, dose response, cytotoxicity control for non-replicating M. tuberculosis project (AID 489025); type: functional
Streptokinase A = target: T5, Streptokinase A (Streptococcus pyogenes serotype M1, UniProt P10520); assay: viability-normalized secreted streptokinase activity reduction – plasminogen activation absorbance, OD405, dose response (AID 1914); type: functional, Streptococcus pyogenes M1 GAS;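 note: secreted streptokinase activity via plasminogen activation per viability signal from cell pellet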
T5 sequence (P10520 whole entry): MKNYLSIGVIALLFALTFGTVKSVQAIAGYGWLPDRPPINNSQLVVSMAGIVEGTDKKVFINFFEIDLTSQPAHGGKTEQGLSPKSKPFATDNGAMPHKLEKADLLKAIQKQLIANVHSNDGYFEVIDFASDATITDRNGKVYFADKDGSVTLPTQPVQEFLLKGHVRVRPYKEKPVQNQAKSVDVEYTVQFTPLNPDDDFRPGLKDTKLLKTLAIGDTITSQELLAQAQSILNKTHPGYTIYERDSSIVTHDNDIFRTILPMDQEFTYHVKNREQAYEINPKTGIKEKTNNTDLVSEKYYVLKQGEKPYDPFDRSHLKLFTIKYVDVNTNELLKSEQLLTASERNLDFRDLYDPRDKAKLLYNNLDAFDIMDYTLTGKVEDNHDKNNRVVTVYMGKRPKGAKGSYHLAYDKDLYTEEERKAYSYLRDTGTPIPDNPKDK

[15] = HepG2 cell cytotoxicity, dose response, cytotoxicity control for non-replicating M. tuberculosis project (AID 489018); type: functional; conditions: Mycobacterium tuberculosis
[16] = microbe, parasite or virus in culture; type: functional; conditions: Mycobacterium tuberculosis
Nonstructural protein 1 = Nonstructural protein 1 (Influenza A virus, UniProt Q194T2); type: functional, Influenza A virus (A/California/07/2009(H1N1))
[17] = target: T4, Short transient receptor potential channel 4; assay: calcium entry via TRPC4 opening agents – cell-based, HEK293 TRPC4/mu-opioid, Fluo-4 calcium, dose response (AID 434937); type: functional
Vero = assay: cells; type: functional; conditions: Chlorocebus sabaeus

Polyadenylate-binding protein 1, sequence (P11940 whole entry): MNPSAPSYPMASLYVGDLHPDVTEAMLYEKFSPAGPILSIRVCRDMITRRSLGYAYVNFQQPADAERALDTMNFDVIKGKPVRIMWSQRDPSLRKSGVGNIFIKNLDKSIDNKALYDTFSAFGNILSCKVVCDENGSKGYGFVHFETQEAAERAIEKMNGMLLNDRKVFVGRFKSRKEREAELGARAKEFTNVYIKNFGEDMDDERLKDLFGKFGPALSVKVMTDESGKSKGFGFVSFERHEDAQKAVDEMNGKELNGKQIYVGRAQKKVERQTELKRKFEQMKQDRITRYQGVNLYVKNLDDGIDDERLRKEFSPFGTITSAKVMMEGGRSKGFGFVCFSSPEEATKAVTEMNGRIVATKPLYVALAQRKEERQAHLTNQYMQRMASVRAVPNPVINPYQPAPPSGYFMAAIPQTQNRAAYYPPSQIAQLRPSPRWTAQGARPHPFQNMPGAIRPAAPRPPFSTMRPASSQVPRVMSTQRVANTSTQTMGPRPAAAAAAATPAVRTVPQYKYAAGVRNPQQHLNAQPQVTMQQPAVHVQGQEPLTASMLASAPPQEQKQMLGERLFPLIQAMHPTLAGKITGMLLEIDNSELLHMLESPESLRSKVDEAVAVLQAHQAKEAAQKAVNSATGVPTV
T3 sequence (P08659 whole entry): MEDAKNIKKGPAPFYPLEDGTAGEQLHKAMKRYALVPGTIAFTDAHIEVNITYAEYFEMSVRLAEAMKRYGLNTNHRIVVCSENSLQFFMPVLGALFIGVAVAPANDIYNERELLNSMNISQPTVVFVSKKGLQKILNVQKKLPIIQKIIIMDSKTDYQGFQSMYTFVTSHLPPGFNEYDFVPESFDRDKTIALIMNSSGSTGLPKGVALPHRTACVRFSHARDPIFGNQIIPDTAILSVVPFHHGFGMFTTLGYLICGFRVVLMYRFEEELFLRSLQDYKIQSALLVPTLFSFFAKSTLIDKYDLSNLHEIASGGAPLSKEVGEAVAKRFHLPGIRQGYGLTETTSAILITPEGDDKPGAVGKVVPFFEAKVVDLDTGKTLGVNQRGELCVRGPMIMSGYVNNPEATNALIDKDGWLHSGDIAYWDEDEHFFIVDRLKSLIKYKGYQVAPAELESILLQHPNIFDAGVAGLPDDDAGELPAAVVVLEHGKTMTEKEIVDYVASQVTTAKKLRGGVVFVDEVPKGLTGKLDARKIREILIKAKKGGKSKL
Ion channel NompC, sequence (Q7T1G6 whole entry): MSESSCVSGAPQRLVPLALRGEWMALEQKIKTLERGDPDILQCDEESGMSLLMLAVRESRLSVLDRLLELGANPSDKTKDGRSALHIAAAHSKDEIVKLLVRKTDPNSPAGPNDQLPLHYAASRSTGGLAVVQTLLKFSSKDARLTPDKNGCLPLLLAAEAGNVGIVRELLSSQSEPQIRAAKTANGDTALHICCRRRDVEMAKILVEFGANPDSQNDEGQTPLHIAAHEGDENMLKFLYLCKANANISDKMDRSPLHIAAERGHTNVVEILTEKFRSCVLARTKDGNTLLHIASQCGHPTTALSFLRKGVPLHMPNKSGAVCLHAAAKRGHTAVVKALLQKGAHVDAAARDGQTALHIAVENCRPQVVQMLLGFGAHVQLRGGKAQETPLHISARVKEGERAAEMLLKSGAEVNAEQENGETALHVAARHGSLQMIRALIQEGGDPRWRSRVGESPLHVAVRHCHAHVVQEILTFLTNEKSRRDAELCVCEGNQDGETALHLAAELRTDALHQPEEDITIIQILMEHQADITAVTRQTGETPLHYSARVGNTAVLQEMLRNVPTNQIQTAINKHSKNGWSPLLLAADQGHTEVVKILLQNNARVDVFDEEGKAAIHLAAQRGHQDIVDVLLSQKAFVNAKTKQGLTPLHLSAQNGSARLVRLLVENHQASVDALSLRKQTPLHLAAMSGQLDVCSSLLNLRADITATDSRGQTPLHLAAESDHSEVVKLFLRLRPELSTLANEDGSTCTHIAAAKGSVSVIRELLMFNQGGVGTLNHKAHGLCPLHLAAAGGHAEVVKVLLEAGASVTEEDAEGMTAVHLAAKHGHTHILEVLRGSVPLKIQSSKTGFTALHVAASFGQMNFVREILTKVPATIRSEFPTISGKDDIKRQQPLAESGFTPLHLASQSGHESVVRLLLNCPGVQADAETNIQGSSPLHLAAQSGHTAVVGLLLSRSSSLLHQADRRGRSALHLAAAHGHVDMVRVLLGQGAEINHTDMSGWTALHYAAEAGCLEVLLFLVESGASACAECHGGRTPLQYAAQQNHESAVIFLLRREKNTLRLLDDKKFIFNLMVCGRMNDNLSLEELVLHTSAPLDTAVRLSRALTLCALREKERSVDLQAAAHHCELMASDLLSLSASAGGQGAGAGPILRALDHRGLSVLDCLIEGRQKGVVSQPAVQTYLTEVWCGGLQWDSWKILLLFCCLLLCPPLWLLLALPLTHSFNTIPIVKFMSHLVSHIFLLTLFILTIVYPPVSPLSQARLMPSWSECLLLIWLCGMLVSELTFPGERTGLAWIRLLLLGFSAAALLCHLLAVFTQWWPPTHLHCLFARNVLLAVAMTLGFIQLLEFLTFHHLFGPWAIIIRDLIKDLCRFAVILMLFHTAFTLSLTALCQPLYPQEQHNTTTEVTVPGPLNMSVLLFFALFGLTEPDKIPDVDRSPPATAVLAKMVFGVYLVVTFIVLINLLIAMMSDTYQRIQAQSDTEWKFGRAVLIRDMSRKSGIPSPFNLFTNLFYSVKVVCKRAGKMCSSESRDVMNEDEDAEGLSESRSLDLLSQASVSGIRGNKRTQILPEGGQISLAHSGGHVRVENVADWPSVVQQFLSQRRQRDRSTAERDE
NACHT, LRR and PYD domains-containing protein 3, sequence (Q96P20 whole entry, the tested form may be a part): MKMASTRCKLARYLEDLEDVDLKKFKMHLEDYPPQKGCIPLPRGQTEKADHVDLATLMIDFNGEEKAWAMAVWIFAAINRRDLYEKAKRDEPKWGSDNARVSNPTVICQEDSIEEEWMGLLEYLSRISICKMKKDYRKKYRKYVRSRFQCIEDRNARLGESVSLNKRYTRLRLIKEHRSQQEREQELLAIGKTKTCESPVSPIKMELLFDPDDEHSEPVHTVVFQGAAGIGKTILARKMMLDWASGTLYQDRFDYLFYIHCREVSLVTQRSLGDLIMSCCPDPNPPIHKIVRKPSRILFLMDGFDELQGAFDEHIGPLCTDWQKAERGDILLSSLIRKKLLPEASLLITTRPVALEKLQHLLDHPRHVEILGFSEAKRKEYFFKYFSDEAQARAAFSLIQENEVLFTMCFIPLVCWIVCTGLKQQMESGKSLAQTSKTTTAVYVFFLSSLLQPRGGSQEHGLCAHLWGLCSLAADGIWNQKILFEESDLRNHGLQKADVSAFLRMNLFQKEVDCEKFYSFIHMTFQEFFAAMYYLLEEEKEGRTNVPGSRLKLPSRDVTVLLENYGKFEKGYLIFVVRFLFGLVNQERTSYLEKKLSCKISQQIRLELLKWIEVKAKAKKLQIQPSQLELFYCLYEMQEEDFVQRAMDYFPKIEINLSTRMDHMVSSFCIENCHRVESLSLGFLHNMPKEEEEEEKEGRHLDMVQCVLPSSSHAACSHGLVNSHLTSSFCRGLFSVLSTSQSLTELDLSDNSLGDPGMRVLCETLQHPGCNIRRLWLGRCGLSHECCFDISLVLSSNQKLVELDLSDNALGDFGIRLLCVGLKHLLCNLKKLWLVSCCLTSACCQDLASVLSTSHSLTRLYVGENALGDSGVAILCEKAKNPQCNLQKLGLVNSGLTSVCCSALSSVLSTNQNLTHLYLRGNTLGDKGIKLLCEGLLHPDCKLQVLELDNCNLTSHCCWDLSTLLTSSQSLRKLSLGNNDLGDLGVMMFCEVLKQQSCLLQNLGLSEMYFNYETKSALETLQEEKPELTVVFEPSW
Neurotensin receptor type 1, sequence (P30989 whole entry): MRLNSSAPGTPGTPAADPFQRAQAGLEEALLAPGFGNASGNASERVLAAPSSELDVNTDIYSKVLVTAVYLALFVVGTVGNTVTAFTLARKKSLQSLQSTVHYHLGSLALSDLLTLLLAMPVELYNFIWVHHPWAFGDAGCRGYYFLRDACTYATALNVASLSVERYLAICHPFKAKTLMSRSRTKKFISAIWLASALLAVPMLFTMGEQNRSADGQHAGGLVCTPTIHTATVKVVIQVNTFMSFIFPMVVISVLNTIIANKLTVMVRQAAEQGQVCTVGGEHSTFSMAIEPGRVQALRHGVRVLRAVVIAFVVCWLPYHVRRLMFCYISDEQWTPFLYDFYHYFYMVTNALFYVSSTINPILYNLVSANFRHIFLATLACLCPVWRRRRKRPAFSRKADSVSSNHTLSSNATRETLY
Nonstructural protein 1, sequence (Q194T2 whole entry): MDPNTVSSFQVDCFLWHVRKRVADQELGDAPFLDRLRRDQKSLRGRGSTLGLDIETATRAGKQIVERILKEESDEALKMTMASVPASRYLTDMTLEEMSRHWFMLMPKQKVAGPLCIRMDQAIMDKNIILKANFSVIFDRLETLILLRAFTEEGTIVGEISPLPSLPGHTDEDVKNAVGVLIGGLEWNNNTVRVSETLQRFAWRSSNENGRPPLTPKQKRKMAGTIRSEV

Cc1cccc(N2C(=O)NC(=O)/C(=C\c3cnn(-c4ccccc4)c3)C2=O)c1
AC50 (Cytochrome P450 1A2): 25.1 µM (inconclusive)
AC50 (Cytochrome P450 2C19): 39.8 µM (inconclusive)
EC50 [1]: 13 µM (active)
AC50 (Cytochrome P450 2C9): 39.8 µM (inconclusive)

COc1ccccc1N(C)S(=O)(=O)c1ccc(Cl)c(C(=O)OCc2c(C)noc2C)c1
EC50 (Mucolipin-3): 3.01 µM (active)
EC50 (Ion channel NompC): > 29.9 µM (not active)

CCOc1ccc(S(=O)(=O)NC(C)(C)C)cc1-c1nc(O)c2c(n1)c(C(C)(C)C)nn2C
EC50 [2]: 1.26 µM (active)
EC50 (Mucolipin-3): 0.781 µM (active)
EC50 [3]: 8.45 µM (active)
EC50 (Ion channel NompC): > 29.9 µM (not active)

C1CCN(c2nc(N3CCCC3)nc(N3CCNCC3)n2)C1
EC50 [4]: > 112 µM (not active)
EC50 [5]: 2.66 µM (active)
EC50 [6]: > 112 µM (not active)

CNc1nc(N2CCc3ccccc32)ncc1F
EC50 [5]: 0.75 µM (active)

Cc1ccc(OCc2nc(-c3ccccn3)no2)c(Br)c1
EC50 [7]: < 0.2 µM (active)
EC50 (HT-1080): > 50 µM (not active)

Cc1ccc(N=C(S)Nc2ncccc2C)c(C)c1
CC50 [8]: > 40 µM (active)

CN(C)CCNc1ccc(Cl)cc1[N+](=O)[O-]
EC50 [5]: 0.01 µM (active)

COc1ccc(N(CC(=O)N2CCCCC2)S(=O)(=O)c2ccccc2)c(OC)c1
EC50 (Mucolipin-3): 1.84 µM (active)
EC50 (Ion channel NompC): > 9.99 µM (not active)

CCC1Nc2ncnc(N3CCN(c4ccccn4)CC3)c2N(Cc2ccc(Cl)cc2)C1=O (centres undefined)
IC50 [9]: 3.16 µM (active)

OCCCn1c(C2CCCN2c2nc(-c3ccc(Cl)cc3)cs2)nc2cc(Cl)c(Cl)cc21 (centres undefined)
CC50 [8]: > 40 µM (active)

Cc1ccc(C)c(NC(=O)C2CCN(C(=O)c3cccs3)CC2)c1
IC50 [10]: > 100 µM (inactive)
IC50 [11]: > 100 µM (inactive)

COc1cc([N+](=O)[O-])ccc1NC(=O)COC(=O)c1ccc(N2CCCC2=O)cc1
IC50 [10]: > 100 µM (inactive)
IC50 [11]: > 100 µM (inactive)

O=C(Nc1ccc(Br)cc1)C1CCCN1C(=O)Oc1ccccc1 (centres undefined)
IC50 [10]: > 100 µM (inactive)
IC50 [11]: > 100 µM (inactive)

COc1ccccc1/C=N\Nc1cc(C)nc(-n2nc(C)cc2C)n1
IC50 (cells): < 0.1 µM (active)
CC50 [12]: 7.06 µM (active)
AC50 (INS1): 2.92 µM (active)
EC50 (Streptococcus): 16.1 µM (active)
EC50 [13]: 7.45 µM (active)
CC50 [14]: 5.71 µM (active)
EC50 (Streptokinase A): > 150 µM (not active)
CC50 [15]: 18.3 µM (active)

C=CCc1c(C)nc(C)nc1N/N=C/c1ccccc1O
CC50 [16]: > 40 µM (active)
IC50 (Nonstructural protein 1): 18.4 µM (active)
IC50 [9]: 45.5 µM (active)

COc1ccc(C(=O)/C=C/Nc2cccc(O)c2)cc1
EC50 [7]: 0.25 µM (active)
EC50 [4]: 0.793 µM (active)
EC50 [6]: 5.26 µM (active)
EC50 (HT-1080): > 50 µM (not active)

Cc1nc(N/C(N)=N/C(=O)NC2CCCCC2)nc2ccccc12
IC50 (cells): 3.25 µM (active)
CC50 [12]: 13.3 µM (active)
CC50 [14]: 16.9 µM (active)
CC50 [15]: 17.7 µM (active)
EC50 [17]: 0.0667 µM (active)
CC50 (Vero): 19.2 µM (active)

From ChEMBL document CHEMBL1201862, “PubChem BioAssay data set” (2004)
